We go through 22 compounds from patent US11680060B2, “Bicycloheptane pyrrolidine orexin receptor agonists” (Merck Sharp & Dohme LLC, priority 2020, dated 2023).

As a reminder, the Emax is the size of the effect at its maximum, as opposed to the concentration needed.

The test concerns the target human OX2R (Homo sapiens (Human), UniProt O43614). Briefly: IPOne (IP-1) assay in CHO cells expressing human OX2R. Format: cell-based. The note with it: for IC50: CHO cells expressing human OX2R, IP-One detection, 2 hours incubation, EC50 = inflection point of four parameter logistic fit, read-out: hOX2R_IP_IC50; for Emax: CHO, read-out: Emax (%); for Emax / Emax (%): percentage of mean max effect of a reference compound at 1 uM (100% activity by comparison to Orexin A), human OX2R. The text has this: The utility of the compounds in accordance with the present invention as orexin receptor OX1R and/or OX2R agonists may be readily determined without undue experimentation by methodology well known in the art. Both the OX1R and/or OX2R G-coupled protein receptors (GPCRs) couple through the Gαq signaling pathway, which ultimately promotes calcium mobilization via inositol triphosphate (IP3) production. The half-life of IP-3 is relatively short, being rapidly metabolized to inositol monophosphate (IP-1), which can be readily detected using a commercially available assay kit (IP-One; Cisbio; cat #621PAPEC) coupled with a cell line expressing the target receptor(s) of interest. The utility of the compounds in accordance with the present invention as orexin receptor OX1R and/or OX2R agonists may be determined utilizing this assay.
In a typical experiment, the OX1 and OX2 receptor agonist activity is determined in accordance with the following general experimental method. Chinese hamster ovary (CHO) cells expressing human OX1R and/or the human OX2R were grown in Iscove's modified DMEM containing glutaMAX™, 1% G418, 100 U/mL penicillin, 100 μg/mL streptomycin and 10% heat-inactivated qualified fetal bovine serum (FBS). The OX2R cells were seeded at 10,000 cells/well/50 μL and the OX1R cells were seeded at 20,000 cells/well/50 μL into 384-well white tissue culture plates (Greiner; cat #781080). All cell/media reagents were from GIBCO-Invitrogen Corp. The seeded cell plate(s) were incubated at 37° C. with 5% CO2 and 85% humidity for 20-24 hours. On the day of the assay, assay-ready compound plates were prepared using an acoustic liquid handler (ECHO; Labcyte), which dispensed sufficient volume of test compound stock (10 mM in DMSO) or 100% DMSO to prepare 10 point, ½-log dilutions in a final volume of 202.5 nL/well in all test wells of a 384-well diamond plate (Labcyte). Following completion of assay-ready plates, importantly, the next three steps were performed with minimal delay: 1) 20 μl of 1× stimulation buffer was added to the compound plate using a Multidrop Combi (small cassette, Thermo Fisher Scientific cat #24073290); 2) culture medium was removed from the cell plate using the Bluewasher plate washer (gentle spin; BlueCatBio); 3) 14 μl of compound/stimulation buffer mixture was added to the cell plate using a Bravo liquid handler (Agilent) prior to incubating cell plates at 37° C. with 5% CO2 and 85% humidity for 1 or 2 hours (OX1R and OX2R, respectively). During this incubation, IP-one detection reagents were prepared (38:1:1 lysis buffer:D2:AB-cryptate reagents). Six μL of mixed detection reagents were added to the cell plate using a Multidrop Combi (small cassette, Thermo Fisher Scientific cat #24073290) and incubated 60 minutes at room temperature in the dark. Fluorescence signal was detected using an Envision plate reader (Perkin Elmer) [LANCE/DELFIA Dual Enh (Em: APC 665; Ex: Cy5 620)].
For each compound, data were fit to a four parameter logistic fit (ActivityBase software) and the EC50 was reported as the inflection point of the resulting curve. Percent effect for each test compound was determined as the percentage of sample raw value/mean max effect, where the mean max effect was derived from the mean raw value of 32 control wells per assay plate (using Orexin A (cat #003-30) at 1 μM for human OX1R and a reference compound at 1 uM with 100% activity previously established by comparison to Orexin A for human OX2R). The intrinsic orexin receptor agonist activity of a compound which may be used in the present invention may be determined by these assays.

Sequence of human OX2R (O43614 whole entry): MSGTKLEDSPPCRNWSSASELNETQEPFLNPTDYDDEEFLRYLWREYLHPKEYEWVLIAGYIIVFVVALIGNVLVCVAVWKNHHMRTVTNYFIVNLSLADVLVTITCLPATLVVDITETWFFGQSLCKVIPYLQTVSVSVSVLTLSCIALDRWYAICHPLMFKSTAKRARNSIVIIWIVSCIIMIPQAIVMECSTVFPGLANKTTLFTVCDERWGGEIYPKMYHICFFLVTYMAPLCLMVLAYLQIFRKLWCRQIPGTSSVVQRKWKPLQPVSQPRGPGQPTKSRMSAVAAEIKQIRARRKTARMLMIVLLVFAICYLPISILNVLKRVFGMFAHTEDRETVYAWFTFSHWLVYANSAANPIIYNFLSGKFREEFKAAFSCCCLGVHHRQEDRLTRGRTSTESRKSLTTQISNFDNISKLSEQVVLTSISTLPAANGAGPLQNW

In the case of `COC(=O)N1[C@H](C)C[C@H](NS(C)(=O)=O)[C@@H]1CO[C@H]1CC[C@@]2(c3ncccn3)C[C@H]2C1` (single isomer, unassigned) [Example 181], the IC50 was determined as 0.0045 µM and the Emax is 101%.

Consider `COC(=O)N1[C@H](C)C[C@H](NS(=O)(=O)C(F)F)[C@@H]1CO[C@H]1CC[C@@]2(c3ncc(F)cn3)C[C@H]2C1` [Example 48, methyl (2R,3S,5R)-3-((difluoromethyl)sulfonamido)-2-((((1S,3S,6R)-6-(5-fluoropyrimidin-2-yl)bicyclo[4.1.0]heptan-3-yl)oxy)methyl)-5-methylpyrrolidine-1-carboxylate], for which the Emax was 101%.

As to `C[C@@H]1C[C@H](NS(C)(=O)=O)[C@H](CO[C@H]2CC[C@@]3(c4ncc(F)cn4)C[C@H]3C2)N1C(=O)OCC1(F)CC1` [Example 61, (1-fluorocyclopropyl)methyl (2R,3S,5R)-2-((((1S,3S,6R)-6-(5-fluoropyrimidin-2-yl)bicyclo[4.1.0]heptan-3-yl)oxy)methyl)-5-methyl-3-(methylsulfonamido)pyrrolidine-1-carboxylate], the Emax was determined as 104%.

Consider `COC(=O)N1[C@@H]2COC[C@@H]2C(NS(C)(=O)=O)[C@@H]1COC1CCC2(c3ncc(F)cn3)CC2C1` (mixture of isomers) [Example 134, Methyl (2R,3aS,6aS)-2-(((6-(5-fluoropyrimidin-2-yl)bicyclo[4.1.0]heptan-3-yl)oxy)methyl)-3-(methylsulfonamido)hexahydro-1H-furo[3,4-b]pyrrole-1-carboxylate], for which the Emax turned out to be 99.7%.

In the case of `COC(=O)N1CC[C@H](NS(C)(=O)=O)[C@@H]1CO[C@H]1CC[C@@]2(c3ncccn3)C[C@H]2C1` (single isomer, unassigned) [Example 177], the IC50 amounted to 0.238 µM and the Emax came out at 99.8%.

`CC(C)OC(=O)N1[C@H](C)C[C@H](NS(=O)(=O)CF)[C@@H]1CO[C@@H]1CC[C@]2(c3ncc(Br)cn3)C[C@@H]2C1` (single isomer, unassigned) [Example 104]: the IC50 amounted to 0.0345 µM and the Emax stood at 102%.

In the case of `COC(=O)N1[C@H](C)C[C@H](NS(C)(=O)=O)[C@@H]1COC1CCC2(c3ncc(F)c(C)n3)CC2C1` (stereo partly drawn) [Example 77, methyl (2R,3S,5R)-2-(((6-(5-fluoro-4-methylpyrimidin-2-yl)bicyclo[4.1.0]heptan-3-yl)oxy)methyl)-5-methyl-3-(methylsulfonamido)pyrrolidine-1-carboxylate], the Emax was 74.5%.

As for `COC(=O)N1[C@@H]2CCC[C@@H]2[C@H](NS(C)(=O)=O)[C@@H]1CO[C@H]1CC[C@@]2(c3ncc(F)cn3)C[C@H]2C1` (single isomer, unassigned) [Example 131], the IC50 is 0.0018 µM and the Emax is 101%.

In the case of `C[C@@H]1C[C@H](NS(C)(=O)=O)[C@H](CO[C@H]2CC[C@@]3(c4ncc(F)cn4)C[C@H]3C2)N1C(=O)OCC(F)F` [Example 66, 2,2-difluoroethyl (2R,3S,5R)-2-((((1S,3S,6R)-6-(5-fluoropyrimidin-2-yl)bicyclo[4.1.0]heptan-3-yl)oxy)methyl)-5-methyl-3-(methylsulfonamido)pyrrolidine-1-carboxylate], the Emax was 101%.

For the compound `CC(C)OC(=O)N1[C@H](C)C[C@H](NS(=O)(=O)C(F)F)[C@@H]1COC1CCC2(c3ncc(F)cn3)CC2C1` (single isomer, unassigned) [Example 92], the IC50 turned out to be 0.775 µM and the “Emax (%)” value is 73.2%.

With `CCC(F)(F)COC(=O)N1[C@H](C)C[C@H](NS(C)(=O)=O)[C@@H]1CO[C@H]1CC[C@@]2(c3ncc(F)cn3)C[C@H]2C1` [Example 60, 2,2-difluorobutyl (2R,3S,5R)-2-((((1S,3S,6R)-6-(5-fluoropyrimidin-2-yl)bicyclo[4.1.0]heptan-3-yl)oxy)methyl)-5-methyl-3-(methylsulfonamido)pyrrolidine-1-carboxylate], the Emax turned out to be 104%.

As for `COC(=O)N1[C@H](C)C[C@H](NS(C)(=O)=O)[C@@H]1CO[C@H]1CC[C@@]2(c3ncccn3)C[C@H]2C1` (single isomer, unassigned) [Example 19], the “Emax (%)” value is given as 100.9%.

As to `CC(F)COC(=O)N1[C@H](C)C[C@H](NS(C)(=O)=O)[C@@H]1CO[C@H]1CC[C@@]2(c3ncc(F)cn3)C[C@H]2C1` (stereo partly drawn) [Example 58, 2-fluoropropyl (2R,3S,5R)-2-((((1S,3S,6R)-6-(5-fluoropyrimidin-2-yl)bicyclo[4.1.0]heptan-3-yl)oxy)methyl)-5-methyl-3-(methylsulfonamido)pyrrolidine-1-carboxylate], the Emax worked out at 103%.

As to `CCS(=O)(=O)N[C@H]1C[C@@H](C(F)F)N(C(=O)OC)[C@H]1COC1CCC2(c3ncc(F)cn3)CC2C1` (stereo partly drawn) [Example 117, methyl (2R,3S,5S)-5-(difluoromethyl)-3-(ethylsulfonamido)-2-(((6-(5-fluoropyrimidin-2-yl)bicyclo[4.1.0]heptan-3-yl)oxy)methyl)pyrrolidine-1-carboxylate], the Emax came to 101%.

For the compound `COC(=O)N1[C@H](C(F)(F)F)C[C@H](NS(C)(=O)=O)[C@@H]1CO[C@H]1CC[C@@]2(c3ncc(F)cn3)C[C@H]2C1` (single isomer, unassigned) [Example 133], the IC50 was 0.0026 µM and the Emax turned out to be 101%.

Consider `COC(=O)N1[C@H](C)C[C@H](NS(=O)(=O)C(F)F)[C@@H]1CO[C@H]1CC[C@@]2(c3ncc(Cl)cn3)C[C@H]2C1` [Example 78, methyl (2R,3S,5R)-2-((((1S,3S,6R)-6-(5-chloropyrimidin-2-yl)bicyclo[4.1.0]heptan-3-yl)oxy)methyl)-3-((difluoromethyl)sulfonamido)-5-methylpyrrolidine-1-carboxylate], for which the Emax is 101%.

On to `COC(=O)N1[C@H](C)C[C@H](NS(=O)(=O)Cc2ccccc2)[C@@H]1CO[C@H]1CC[C@@]2(c3ncc(F)cn3)C[C@H]2C1` [Example 34, methyl (2R,3S,5R)-2-((((1S,3S,6R)-6-(5-fluoropyrimidin-2-yl)bicyclo[4.1.0]heptan-3-yl)oxy)methyl)-5-methyl-3-((phenylmethyl)sulfonamido)pyrrolidine-1-carboxylate], for which the Emax was 96.5%.

Take `COC(=O)N1[C@H](C)C[C@H](NS(C)(=O)=O)[C@@H]1COC1CC[C@@]2(c3nccs3)C[C@H]2C1` (single isomer, unassigned) [Example 146]: the IC50 came out at 0.0507 µM and the Emax was 101%.

With `COC(=O)N1[C@H](C)C[C@H](NS(C)(=O)=O)[C@@H]1CO[C@@H]1CC[C@]2(c3ncc(C)cn3)C[C@@H]2C1` (single isomer, unassigned) [Example 155], the IC50 is 0.717 µM and the Emax was determined as 54.3%.

Turning to `COC(=O)N1[C@H](C)C[C@H](NS(=O)(=O)N(C)C)[C@@H]1COC1CCC2(c3ncccn3)CC2C1` (stereo partly drawn) [Example 6, methyl (2R,3S,5R)-3-((N,N-dimethylsulfamoyl)amino)-5-methyl-2-(((6-(pyrimidin-2-yl)bicyclo[4.1.0]heptan-3-yl)oxy)methyl)pyrrolidine-1-carboxylate], the Emax turned out to be 101%.

As to `COC(=O)N1[C@H](C)C[C@H](NS(=O)(=O)N(C)C)[C@@H]1COC1CCC2(c3ncc(F)cn3)CC2C1` (stereo partly drawn) [Example 169, methyl (2R,3S,5R)-3-((N,N-dimethylsulfamoyl)amino)-2-(((6-(5-fluoropyrimidin-2-yl)bicyclo[4.1.0]heptan-3-yl)oxy)methyl)-5-methylpyrrolidine-1-carboxylate], the IC50 came to 0.0015 µM.

For the compound `CC(C)OC(=O)N1[C@H](C)C[C@H](NS(=O)(=O)C(F)F)[C@@H]1CO[C@@H]1CC[C@]2(c3ncc(F)cn3)C[C@@H]2C1` (single isomer, unassigned) [Example 91], the IC50 was 0.0033 µM and the Emax worked out at 102%.
